IC50 and Ki data for 16 compounds are collected here from ChEMBL document CHEMBL1909046, “DrugMatrix in vitro pharmacology data”.

For one assay, the target named is Acetylcholinesterase (Homo sapiens, UniProt P22303). Put plainly: DRUGMATRIX: Acetylcholinesterase enzyme inhibition (substrate: acetylthiocholine). The following applies: hek293; Not Active = under 50% inhibition at 10 µM. It counts as cell-based, HEK293.
The nature of assay [1]: DRUGMATRIX: Glutamate, NMDA, Agonism radioligand binding (ligand: [3H] CGP-39653). It counts as cell membranes, Rattus norvegicus, Wistar, Cerebral cortex, Membrane. The following applies: Not Active = under 50% inhibition at 10 µM.
Assay [2] in a line: DRUGMATRIX: ATPase, Na+/K+ enzyme inhibition (substrate: ATP). Type of assay: tissue-based, Sus scrofa, Heart. The following applies: Not Active = under 50% inhibition at 10 µM.
Assay [3] is described as follows: DRUGMATRIX: Interleukin IL-1 radioligand binding (ligand: [125I] interleukin 1beta). It counts as cell membranes, Membrane. The following applies: nih3t3; Not Active = under 50% inhibition at 10 µM.
Assay [4] concerns the target T1, Alpha-1D adrenergic receptor (Homo sapiens, UniProt P25100). Also: in other assays of this panel Not Active means under 50% inhibition at 10 µM.
T1 sequence (P25100 whole entry): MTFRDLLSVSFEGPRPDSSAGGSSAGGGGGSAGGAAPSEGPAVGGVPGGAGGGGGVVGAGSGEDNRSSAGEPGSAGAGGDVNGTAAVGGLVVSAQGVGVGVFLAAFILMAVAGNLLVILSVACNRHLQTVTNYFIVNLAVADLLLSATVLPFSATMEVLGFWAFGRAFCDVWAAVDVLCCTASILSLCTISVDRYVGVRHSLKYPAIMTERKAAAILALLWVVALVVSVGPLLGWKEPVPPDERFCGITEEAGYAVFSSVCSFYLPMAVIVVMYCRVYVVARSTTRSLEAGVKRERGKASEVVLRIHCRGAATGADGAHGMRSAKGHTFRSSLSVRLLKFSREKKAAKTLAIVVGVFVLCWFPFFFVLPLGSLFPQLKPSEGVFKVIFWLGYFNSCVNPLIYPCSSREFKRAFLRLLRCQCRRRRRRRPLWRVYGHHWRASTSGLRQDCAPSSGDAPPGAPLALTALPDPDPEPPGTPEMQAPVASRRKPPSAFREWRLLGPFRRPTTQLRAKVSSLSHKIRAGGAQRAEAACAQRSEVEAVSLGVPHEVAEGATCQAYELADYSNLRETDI
Type of assay: cell membranes, HEK293, Membrane. The following applies: hek293.

For another assay, the target named is Melanocortin receptor 5 (Homo sapiens, UniProt P33032). Type of assay: cell membranes, HEK293, Membrane. The following applies: hek293. Also: in other assays of this panel Not Active means under 50% inhibition at 10 µM.
Chain of Melanocortin receptor 5 (P33032 whole entry): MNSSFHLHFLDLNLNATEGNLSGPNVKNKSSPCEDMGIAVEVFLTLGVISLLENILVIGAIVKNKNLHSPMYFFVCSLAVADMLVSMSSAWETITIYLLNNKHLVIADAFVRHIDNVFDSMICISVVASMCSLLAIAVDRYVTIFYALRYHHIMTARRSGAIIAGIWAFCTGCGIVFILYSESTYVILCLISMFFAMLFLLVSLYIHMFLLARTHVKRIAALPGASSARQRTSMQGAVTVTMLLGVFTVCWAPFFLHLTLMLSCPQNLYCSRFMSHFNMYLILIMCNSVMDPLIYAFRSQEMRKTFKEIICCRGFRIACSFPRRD
Assay [5] is described as follows: DRUGMATRIX: Platelet-Derived Growth Factor (PDGF) radioligand binding (ligand: [125I] PDGF). Type of assay: cell-based. To be noted: nih3t3; Not Active = under 50% inhibition at 10 µM.

Chain of Acetylcholinesterase (P22303 whole entry): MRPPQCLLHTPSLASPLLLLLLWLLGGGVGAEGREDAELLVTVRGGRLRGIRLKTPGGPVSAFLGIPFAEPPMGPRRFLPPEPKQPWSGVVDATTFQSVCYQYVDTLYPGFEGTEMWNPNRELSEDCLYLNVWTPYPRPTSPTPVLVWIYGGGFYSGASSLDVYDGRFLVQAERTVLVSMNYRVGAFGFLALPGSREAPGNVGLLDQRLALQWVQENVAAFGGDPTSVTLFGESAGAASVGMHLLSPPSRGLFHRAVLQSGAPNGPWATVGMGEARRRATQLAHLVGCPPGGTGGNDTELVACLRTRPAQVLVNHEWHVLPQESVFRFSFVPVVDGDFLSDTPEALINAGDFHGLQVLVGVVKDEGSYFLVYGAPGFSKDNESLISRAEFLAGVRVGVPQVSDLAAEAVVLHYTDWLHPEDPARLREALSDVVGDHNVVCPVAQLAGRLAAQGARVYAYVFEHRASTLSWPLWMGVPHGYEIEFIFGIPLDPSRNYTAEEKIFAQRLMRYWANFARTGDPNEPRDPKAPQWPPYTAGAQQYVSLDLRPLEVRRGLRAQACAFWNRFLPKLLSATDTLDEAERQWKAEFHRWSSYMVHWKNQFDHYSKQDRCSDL

In the case of `C[C@]12CC[C@H]3[C@@H](CCC4=CC(=O)CC[C@@H]43)[C@@H]1CC[C@@H]2O` [NANDROLONE], the IC50 entry (on Acetylcholinesterase; in assay [1]; in assay [2]; in assay [3]; in assay [4]; against Melanocortin receptor 5) was “Not Active” each time. In addition, the IC50 result in assay [5] is reported as “Not Active”. Besides, the Ki entry in assay [1], in assay [2], in assay [3] and in assay [5] was “Not Active” in each case.

With `C[C@@H]1C/C=C/C=C/C=C/C=C/[C@H](O[C@@H]2O[C@H](C)[C@@H](O)[C@H](N)[C@@H]2O)C[C@@H]2O[C@](O)(C[C@@H](O)C[C@H]3O[C@@H]3/C=C/C(=O)O1)C[C@H](O)[C@H]2C(=O)O` [NATAMYCIN], the IC50 entry (against Acetylcholinesterase; in assay [1]; in assay [2]; in assay [3]; in assay [4]; against Melanocortin receptor 5) was “Not Active” in each case. Besides, the IC50 entry in assay [5] is listed as “Not Active”. For the same compound, the Ki result in assay [1], in assay [2], in assay [3] and in assay [5] was “Not Active” each time.

`NC(=O)c1cccnc1` [NIACINAMIDE]: the IC50 entry (against Acetylcholinesterase; in assay [1]; in assay [2]; in assay [3]; in assay [4]; on Melanocortin receptor 5) was “Not Active” in each case. In assay [5], the IC50 entry is given as “Not Active”. Besides, the Ki result in assay [1], in assay [2], in assay [3] and in assay [5] was “Not Active” each time.

As to `CS(=O)(=O)Nc1ccc([N+](=O)[O-])cc1Oc1ccccc1` [NIMESULIDE], the IC50 result (against Acetylcholinesterase; in assay [1]; in assay [2]; in assay [3]; in assay [4]; at Melanocortin receptor 5) was “Not Active” each time. The IC50 result in assay [5] is given as “Not Active”. For the same compound, the Ki entry in assay [1], in assay [2], in assay [3] and in assay [5] was “Not Active” throughout.

As to `CN1C(=O)CN=C(c2ccccc2)c2cc([N+](=O)[O-])ccc21` [NIMETAZEPAM], the IC50 result (on Acetylcholinesterase; in assay [1]; in assay [2]; in assay [3]; in assay [4]; on Melanocortin receptor 5) was “Not Active” throughout. Besides, the IC50 result in assay [5] was “Not Active”. Moreover, the Ki entry in assay [1], in assay [2], in assay [3] and in assay [5] was “Not Active” in each case.

As for `COc1ccc2c(c1OC)C(=O)O[C@@H]2[C@H]1c2c(cc3c(c2OC)OCO3)CCN1C` [NOSCAPINE], the IC50 result (on Acetylcholinesterase; in assay [1]; in assay [2]; in assay [3]; in assay [4]; at Melanocortin receptor 5) was “Not Active” throughout. For the same compound, in assay [5], the IC50 entry is reported as “Not Active”. The Ki entry in assay [1], in assay [2], in assay [3] and in assay [5] was “Not Active” in each case.

Take `C[C@@H]1O[C@@H](O[C@H]2C[C@@H](O)[C@]3(CO)[C@H]4[C@H](O)C[C@]5(C)[C@@H](C6=CC(=O)OC6)CC[C@]5(O)[C@@H]4CC[C@]3(O)C2)[C@H](O)[C@H](O)[C@H]1O` [OUABAIN]: the IC50 result against Acetylcholinesterase is “Not Active”; in assay [1], “Not Active”; in assay [2] (read-out: IC50), 0.678 µM; in assay [3] it was “Not Active”; in assay [4], “Not Active”; at Melanocortin receptor 5, “Not Active”. Also, the IC50 result in assay [5] is reported as “Not Active”. In addition, the Ki result in assay [1], in assay [3] and in assay [5] was “Not Active” each time.

Consider `NC(=O)N1c2ccccc2CC(=O)c2ccccc21` [OXCARBAZEPINE], for which the IC50 result (at Acetylcholinesterase; in assay [1]; in assay [2]; in assay [3]; in assay [4]; on Melanocortin receptor 5) was “Not Active” each time. The IC50 entry in assay [5] is given as “Not Active”. The Ki entry in assay [1], in assay [2], in assay [3] and in assay [5] was “Not Active” throughout.

Turning to `COc1ccnc(C[S+]([O-])c2nc3ccc(OC(F)F)cc3[nH]2)c1OC` (stereo not given) [PANTOPRAZOLE], the IC50 entry (against Acetylcholinesterase; in assay [1]; in assay [2]; in assay [3]; in assay [4]; against Melanocortin receptor 5) was “Not Active” each time. For the same compound, the IC50 result in assay [5] is on record as “Not Active”. Further, the Ki result in assay [1], in assay [2], in assay [3] and in assay [5] was “Not Active” each time.

For the compound `N=C(N)c1ccc(OCCCCCOc2ccc(C(=N)N)cc2)cc1` [PENTAMIDINE], the IC50 entry (against Acetylcholinesterase; in assay [1]; in assay [2]; in assay [3]; in assay [4]; against Melanocortin receptor 5) was “Not Active” each time. Moreover, the IC50 entry in assay [5] is recorded as “Not Active”. Also, the Ki entry in assay [1], in assay [2], in assay [3] and in assay [5] was “Not Active” throughout.

Take `NNCCc1ccccc1` [PHENELZINE]: the IC50 entry (against Acetylcholinesterase; in assay [1]; in assay [2]; in assay [3]; in assay [4]; on Melanocortin receptor 5) was “Not Active” each time. In addition, in assay [5], the IC50 entry is listed as “Not Active”. The Ki entry in assay [1], in assay [2], in assay [3] and in assay [5] was “Not Active” throughout.

In the case of `CCc1ccc(CCOc2ccc(CC3SC(=O)NC3=O)cc2)nc1` (stereo not given) [PIOGLITAZONE], the IC50 entry (at Acetylcholinesterase; in assay [1]; in assay [2]; in assay [3]; in assay [4]; on Melanocortin receptor 5) was “Not Active” throughout. The IC50 result in assay [5] is given as “Not Active”. In addition, the Ki result in assay [1], in assay [2], in assay [3] and in assay [5] was “Not Active” each time.

For the compound `CCCNC(C)C(=O)Nc1ccccc1C` (stereo not given) [PRILOCAINE], the IC50 result (on Acetylcholinesterase; in assay [1]; in assay [2]; in assay [3]; in assay [4]; at Melanocortin receptor 5) was “Not Active” in each case. In addition, the IC50 result in assay [5] was “Not Active”. Also, the Ki result in assay [1], in assay [2], in assay [3] and in assay [5] was “Not Active” in each case.

As to `CCN(CC)CCNC(=O)c1ccc(N)cc1` [PROCAINAMIDE], the IC50 result (against Acetylcholinesterase; in assay [1]; in assay [2]; in assay [3]; in assay [4]; on Melanocortin receptor 5) was “Not Active” in each case. For the same compound, the IC50 entry in assay [5] is given as “Not Active”. Further, the Ki entry in assay [1], in assay [2], in assay [3] and in assay [5] was “Not Active” in each case.

With `C[C@]12C=CC(=O)C=C1CC[C@H]1[C@@H]3C[C@@H](O)[C@](O)(C(=O)CO)[C@@]3(C)C[C@H](O)[C@@]12F` [TRIAMCINOLONE], the IC50 entry (on Acetylcholinesterase; in assay [1]; in assay [2]; in assay [3]; in assay [4]; against Melanocortin receptor 5) was “Not Active” throughout. In addition, the IC50 entry in assay [5] is given as “Not Active”. Besides, the Ki entry in assay [1], in assay [2], in assay [3] and in assay [5] was “Not Active” in each case.

Take `CC[C@]1(O)C[C@@H]2CN(CCc3c([nH]c4ccccc34)[C@@](C(=O)OC)(c3cc4c(cc3OC)N(C)[C@H]3[C@@](O)(C(N)=O)[C@H](O)[C@]5(CC)C=CCN6CC[C@]43[C@@H]65)C2)C1` [VINDESINE]: the IC50 entry (against Acetylcholinesterase; in assay [1]; in assay [2]; in assay [3]; in assay [4]; against Melanocortin receptor 5) was “Not Active” in each case. The half-maximal inhibitory concentration (IC50) result in assay [5] is on record as “Not Active”. For the same compound, the Ki result in assay [1], in assay [2], in assay [3] and in assay [5] was “Not Active” throughout.
